ChEMBL document CHEMBL2029206, “Design, synthesis and biological evaluation of potent NAD+-dependent DNA ligase inhibitors as potential antibacterial agents. Part 2: 4-amino-pyrido[2,3-d]pyrimidin-5(8H)-ones” (Bioorg Med Chem Lett, 2012)
Values after ≈ are worked out from the molar mass of the structure shown. Active and inactive are the calls of the source. The calls are words filed in the database; no cut-off is given here.

Columns and labels:
[1] = Inhibition of Escherichia coli NAD+dependent DNA ligase
[2] = Inhibition of human ATP-dependent DNA ligase
[3] = tested on: Staphylococcus aureus; assay: Antibacterial activity against Staphylococcus aureus ATCC 29213; assay type: functional
[4] = tested on: Streptococcus pneumoniae; assay: Antibacterial activity against Streptococcus pneumoniae ATCC 10015; assay type: functional
[5] = tested on: Escherichia coli; assay: Antibacterial activity against wild-type Escherichia coli; assay type: functional, organism-based
[6] = tested on: Haemophilus influenzae; assay: Antibacterial activity against Haemophilus influenzae ATCC 51907; assay type: functional

IC50 [1]	IC50 [2]	MIC [3]	MIC [4]	MIC [6]	SMILES	Activity [5]
68 nM	> 55000 nM	> 100 µM	> 100 µM		C[C@H]1CCCC[C@H]1Oc1nc(N)c2c(=O)ccn(CC3C[C@@H](O)[C@@H](O)C3)c2n1 (stereo partly specified)	inactive
48 nM	> 55000 nM	> 100 µM	20.8 µM (≈ 8.35 µg/mL)	100 µM (≈ 40.1 µg/mL)	C[C@H]1CC[C@H](Oc2nc(N)c3c(=O)ccn([C@H]4CC(C(N)=O)C[C@@H]4O)c3n2)CC1 (stereo partly specified)	inactive
20 nM	> 55000 nM	> 100 µM	> 100 µM		C[C@H]1CCCC[C@H]1Oc1nc(N)c2c(=O)ccn(CC3CC=CC3)c2n1 (relative stereo)	inactive
225 nM	> 55000 nM	25 µM (≈ 9.36 µg/mL)	4.2 µM (≈ 1.57 µg/mL)	> 100 µM	C[C@H]1CC[C@H](Oc2nc(N)c3c(=O)ccn([C@H]4CC[C@H](O)[C@@H]4O)c3n2)CC1	inactive
76 nM	> 55000 nM	25 µM (≈ 9.36 µg/mL)	5.2 µM (≈ 1.95 µg/mL)	100 µM (≈ 37.4 µg/mL)	C[C@H]1CC[C@H](Oc2nc(N)c3c(=O)ccn(C4[C@@H](O)CC[C@@H]4O)c3n2)CC1	inactive
420 nM	> 55000 nM				C[C@H]1CC[C@H](Oc2nc(N)c3c(=O)ccn(CCO)c3n2)CC1	inactive
51 nM	> 55000 nM	> 100 µM	83.3 µM (≈ 33.5 µg/mL)	> 100 µM	C[C@H]1CC[C@H](Oc2nc(N)c3c(=O)ccn([C@H]4CC(C(=O)O)C[C@@H]4O)c3n2)CC1 (stereo partly specified)	inactive
36 nM	> 55000 nM	> 100 µM	> 100 µM		C[C@H]1CCCC[C@H]1Oc1nc(N)c2c(=O)ccn(CCC#N)c2n1 (relative stereo)	inactive
38 nM	> 55000 nM	100 µM (≈ 36 µg/mL)	100 µM (≈ 36 µg/mL)		C[C@H]1CCCC[C@H]1Oc1nc(N)c2c(=O)ccn([C@@H]3COC[C@H]3O)c2n1	inactive
> 10000 nM	> 55000 nM				Nc1nc(NC2CCCC2)nc2c1c(=O)ccn2CCO	inactive
28 nM	> 55000 nM	> 100 µM	> 100 µM		C[C@H]1CCCC[C@H]1Oc1nc(N)c2c(=O)ccn([C@@H]3CC[C@@H]4C[C@H]3OC4=O)c2n1	inactive
41 nM	> 55000 nM	50 µM (≈ 18.9 µg/mL)	6.3 µM (≈ 2.39 µg/mL)	75 µM (≈ 28.4 µg/mL)	Nc1nc(OC2CCC(Cl)CC2)nc2c1c(=O)ccn2[C@H]1CCC[C@@H]1O (relative stereo)	inactive
510 nM	> 55000 nM				Nc1nc(OC2CCCC2)nc2c1c(=O)ccn2CCO	inactive

Continued, compound first:

SMILES	IC50 [1]	IC50 [2]	MIC [3]	MIC [4]	MIC [6]	Activity [5]
C[C@H]1CCCC[C@H]1Oc1nc(N)c2c(=O)ccn(CC(O)CF)c2n1 (relative stereo)	28 nM	> 55000 nM	> 100 µM	100 µM (≈ 35 µg/mL)		inactive
C[C@H]1CCCC[C@H]1Oc1nc(N)c2c(=O)ccn([C@@H]3CCCC[C@H]3O)c2n1	110 nM	> 55000 nM	100 µM (≈ 37.2 µg/mL)	75 µM (≈ 27.9 µg/mL)		inactive
C[C@H]1CC[C@H](Oc2nc(N)c3c(=O)ccn([C@@H]4CCC[C@H]4O)c3n2)CC1	190 nM	> 55000 nM	37.5 µM (≈ 13.4 µg/mL)	3.1 µM (≈ 1.11 µg/mL)	100 µM (≈ 35.8 µg/mL)	inactive
C[C@H]1CCCC[C@H]1Oc1nc(N)c2c(=O)ccn([C@@H]3CCC[C@H]3O)c2n1	40 nM	> 55000 nM	100 µM (≈ 35.8 µg/mL)	50 µM (≈ 17.9 µg/mL)		inactive
Nc1nc(SC2CCCC2)nc2c1c(=O)ccn2CCO	350 nM	> 55000 nM				inactive
C[C@H]1CCCC[C@H]1Oc1nc(N)c2c(=O)ccn(Cc3cn[nH]c3)c2n1 (relative stereo)	36 nM	> 55000 nM	> 100 µM	> 100 µM		inactive
Nc1nc(OC2CCC(C(F)(F)F)CC2)nc2c1c(=O)ccn2[C@H]1CCC[C@@H]1O (relative stereo)	350 nM	> 55000 nM	50 µM (≈ 20.6 µg/mL)	8.4 µM (≈ 3.46 µg/mL)	> 100 µM	inactive
C[C@H]1CCCC[C@H]1Oc1nc(N)c2c(=O)ccn(Cc3ccc(C(=O)O)cc3)c2n1 (relative stereo)	19 nM	> 55000 nM	> 100 µM	> 100 µM		inactive
Nc1nc(OC(CF)CF)nc2c1c(=O)ccn2CCO	310 nM	> 55000 nM				inactive
C[C@H]1CCCC[C@H]1Oc1nc(N)c2c(=O)ccn(CC#N)c2n1 (relative stereo)	20 nM	> 55000 nM	> 100 µM	> 100 µM		inactive
Nc1nc(OC2CCC3(CC2)OCCO3)nc2c1c(=O)ccn2[C@H]1CCC[C@@H]1O (relative stereo)	90 nM	> 55000 nM	> 100 µM	50 µM (≈ 20.1 µg/mL)	> 100 µM	inactive
C[C@@H]1CCCC[C@@H]1Oc1nc(N)c2c(=O)ccn(CCO)c2n1 (relative stereo)	57 nM	> 55000 nM				inactive
Nc1nc(SC2CCCC2)nc2c1c(=O)ccn2[C@H]1CCC[C@@H]1O (relative stereo)	63 nM	> 55000 nM	25 µM (≈ 8.66 µg/mL)	> 100 µM	> 100 µM	inactive
C[C@H]1CCCC[C@H]1Oc1nc(N)c2c(=O)ccn(CC(O)CO)c2n1 (relative stereo)	79 nM	> 55000 nM	> 100 µM	> 100 µM		inactive
CC1CCC(Oc2nc(N)c3c(=O)ccn([C@H]4CCC[C@@H]4O)c3n2)C(C)C1 (relative stereo)	170 nM	> 55000 nM	> 100 µM	16.7 µM (≈ 6.22 µg/mL)	50 µM (≈ 18.6 µg/mL)	inactive
C[C@H]1CC[C@H](Oc2nc(N)c3c(=O)ccn([C@H]4CCC[C@@H]4O)c3n2)CC1	39 nM	> 55000 nM	18.8 µM (≈ 6.74 µg/mL)	6.3 µM (≈ 2.26 µg/mL)	75 µM (≈ 26.9 µg/mL)	inactive
Nc1nc(OCCF)nc2c1c(=O)ccn2CCO	1950 nM	> 55000 nM				inactive
C[C@H]1CC[C@H](Oc2nc(N)c3c(=O)ccn(Cc4ccc(C(=O)O)s4)c3n2)CC1	490 nM	> 55000 nM	> 100 µM	83.3 µM (≈ 34.5 µg/mL)	25 µM (≈ 10.4 µg/mL)	inactive
CC(C)Oc1nc(N)c2c(=O)ccn(CCO)c2n1	1060 nM	> 55000 nM				inactive
